Calls of active or inactive are those of the source.
Key:
[1] = biological target: T1, Apoptotic protease-activating factor 1 (Homo sapiens, UniProt O14727); format: functional
T1 sequence (O14727 whole entry): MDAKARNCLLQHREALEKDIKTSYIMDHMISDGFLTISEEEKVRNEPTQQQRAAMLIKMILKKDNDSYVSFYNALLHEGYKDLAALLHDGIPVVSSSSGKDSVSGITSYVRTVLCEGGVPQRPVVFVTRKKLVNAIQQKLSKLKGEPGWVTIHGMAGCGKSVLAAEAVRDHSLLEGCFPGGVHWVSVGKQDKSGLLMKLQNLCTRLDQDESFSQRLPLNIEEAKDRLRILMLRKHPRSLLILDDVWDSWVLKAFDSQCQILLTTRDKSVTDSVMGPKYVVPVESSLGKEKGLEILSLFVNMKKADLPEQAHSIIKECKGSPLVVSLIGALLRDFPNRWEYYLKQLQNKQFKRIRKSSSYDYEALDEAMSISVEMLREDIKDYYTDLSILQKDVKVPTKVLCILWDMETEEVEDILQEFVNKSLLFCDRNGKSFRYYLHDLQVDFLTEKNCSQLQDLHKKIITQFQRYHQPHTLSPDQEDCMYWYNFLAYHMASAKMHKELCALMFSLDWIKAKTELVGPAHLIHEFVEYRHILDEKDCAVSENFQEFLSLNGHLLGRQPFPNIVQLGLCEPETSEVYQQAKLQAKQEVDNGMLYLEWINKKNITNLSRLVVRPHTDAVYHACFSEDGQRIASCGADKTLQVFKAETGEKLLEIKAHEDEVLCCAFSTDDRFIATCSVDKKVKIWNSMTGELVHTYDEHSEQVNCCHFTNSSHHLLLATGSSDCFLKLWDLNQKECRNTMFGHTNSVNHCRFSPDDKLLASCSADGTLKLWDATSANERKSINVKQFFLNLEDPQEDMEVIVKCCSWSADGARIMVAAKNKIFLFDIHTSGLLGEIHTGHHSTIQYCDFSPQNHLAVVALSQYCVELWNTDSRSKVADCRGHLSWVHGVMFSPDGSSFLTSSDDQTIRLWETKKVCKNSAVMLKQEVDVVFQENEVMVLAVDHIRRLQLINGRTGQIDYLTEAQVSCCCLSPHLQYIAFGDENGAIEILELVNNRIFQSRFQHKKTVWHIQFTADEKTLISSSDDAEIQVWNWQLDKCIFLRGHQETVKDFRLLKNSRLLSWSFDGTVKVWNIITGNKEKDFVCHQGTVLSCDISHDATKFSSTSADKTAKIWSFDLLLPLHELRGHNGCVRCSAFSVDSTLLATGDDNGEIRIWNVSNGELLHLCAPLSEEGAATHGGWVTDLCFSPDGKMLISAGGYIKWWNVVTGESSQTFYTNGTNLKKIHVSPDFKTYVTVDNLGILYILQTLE

[2] = biological target: T2, Histone-lysine N-methyltransferase NSD2 (Homo sapiens, UniProt O96028); format: biochemical
T2 sequence (O96028 whole entry): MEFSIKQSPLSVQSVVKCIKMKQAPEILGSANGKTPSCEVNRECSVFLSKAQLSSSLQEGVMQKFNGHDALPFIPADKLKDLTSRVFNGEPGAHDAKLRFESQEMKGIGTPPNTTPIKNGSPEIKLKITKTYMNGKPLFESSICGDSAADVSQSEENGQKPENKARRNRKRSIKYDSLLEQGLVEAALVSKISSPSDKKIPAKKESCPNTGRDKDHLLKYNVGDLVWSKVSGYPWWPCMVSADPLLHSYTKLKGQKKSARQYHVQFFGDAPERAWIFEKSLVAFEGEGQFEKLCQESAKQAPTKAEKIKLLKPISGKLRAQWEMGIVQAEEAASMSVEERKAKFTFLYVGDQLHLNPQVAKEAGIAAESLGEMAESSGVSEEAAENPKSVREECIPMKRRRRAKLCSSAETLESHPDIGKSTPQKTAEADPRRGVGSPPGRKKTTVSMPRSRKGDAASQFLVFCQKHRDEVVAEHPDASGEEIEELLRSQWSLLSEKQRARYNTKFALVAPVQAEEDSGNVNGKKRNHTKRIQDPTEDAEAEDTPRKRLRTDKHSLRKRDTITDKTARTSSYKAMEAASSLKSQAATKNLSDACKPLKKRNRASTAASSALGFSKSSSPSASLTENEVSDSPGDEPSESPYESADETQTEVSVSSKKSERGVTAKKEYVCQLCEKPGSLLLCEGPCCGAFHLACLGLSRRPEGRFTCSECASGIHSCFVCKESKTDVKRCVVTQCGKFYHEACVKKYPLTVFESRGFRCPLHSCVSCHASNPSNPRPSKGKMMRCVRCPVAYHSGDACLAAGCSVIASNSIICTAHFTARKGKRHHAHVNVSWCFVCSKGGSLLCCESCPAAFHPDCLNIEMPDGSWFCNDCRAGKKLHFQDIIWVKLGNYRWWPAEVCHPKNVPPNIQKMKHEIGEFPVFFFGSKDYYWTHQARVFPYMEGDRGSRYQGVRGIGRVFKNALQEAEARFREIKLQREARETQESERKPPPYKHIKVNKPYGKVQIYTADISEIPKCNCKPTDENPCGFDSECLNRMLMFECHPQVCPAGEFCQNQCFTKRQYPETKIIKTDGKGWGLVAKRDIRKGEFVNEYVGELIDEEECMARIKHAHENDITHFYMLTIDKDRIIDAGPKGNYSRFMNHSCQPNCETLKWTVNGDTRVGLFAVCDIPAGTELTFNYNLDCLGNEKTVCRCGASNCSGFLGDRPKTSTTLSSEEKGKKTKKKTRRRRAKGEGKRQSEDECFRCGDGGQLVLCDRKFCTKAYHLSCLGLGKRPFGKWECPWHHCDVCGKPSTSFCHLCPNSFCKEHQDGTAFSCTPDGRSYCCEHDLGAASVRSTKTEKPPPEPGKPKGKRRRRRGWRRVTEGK

SMILES	IC50 [1]	AC50 [2]
CCCCCCCCCCOC(=O)Cn1c(COc2ccccc2)[n+](C)c2ccccc21	12.6 µM (active)	
N#Cc1c(NC(=O)c2ccc(Br)o2)n(-c2ccccc2)c2nc3ccccc3nc12	7.22 µM (active)	11.6 µM (active)
CC(C)[n+]1ccn(C2=C([N-]S(=O)(=O)c3ccccc3)C(=O)c3ccccc3C2=O)c1	7.16 µM (active)	5.79 µM (active)
COc1cc(-c2nnc(SCc3cc(=O)oc4cc(O)c(O)cc34)o2)cc(OC)c1OC		0.665 µM (active)
CCOC(=O)c1c(-c2ccc(-c3ccccc3)cc2)csc1NC(=O)CNCCN(C)C	32.5 µM (active)	

From ChEMBL document CHEMBL1201862, “PubChem BioAssay data set” (2004)
